# Laboratory results from US12673921B2, “Substituted fluorine-containing imidazole salt compound, preparation method therefor, pharmaceutical composition thereof and use thereof” (XIAMEN VIVOHEALTHS TECHNOLOGY CO., LTD., priority 2019, dated 2026).
# Test system: AMPK
# Assay: AMPK activity assay at cell level (western blot of p-AMPKα and p-ACC in MEFs)
# Format: cell-based, mouse
# Details: MEF cells, compound 10 nM, 2 h; multiple of the ratio relative to positive control AICAR (3 mM); band brightness by Image J
# Method: The ability of compounds to activate AMPK in mouse embryonic fibroblasts (MEFs) was determined, which could be specifically carried out by detecting the phosphorylation level (p-AMPKα) of threonine at the 172nd position of AMPK and the phosphorylation level (p-ACC) of serine at the 79th position of the susbtrate ACC1/ACC2 of AMPK (FIG. 1 and Table I) by western blot.
# The specific method was as follows: • (1) MEFs with loxP insertion sequences or of wild-type were plated in a 6-well plate and cultured in DMEM containing 10% serum. If a gene needed to be knocked out at this time, when the density of the corresponding MEFs with loxP insertion sequences reached about 30%, an adenovirus capable of expressing cre should be added to the culture well followed by further culture for more than 24 h; • (2) When the cell density was close to 90%, the cells were provided with fresh DMEM, at the same time, a compound (final concentration 10 nM) was added to the cells, followed by culture for 2 h, with an equal volume of DMSO as the negative control, and the cells treated with the addition of AICAR (3 mM) as the positive control; • (3) After sucking up the culture solution, the cells were lysed with 200 μL of a cell lysate (its formulation was given below), then the cells were scraped from the culture dish, ultrasonicated, and subjected to low temperature centrifugation at 20000 g for 10 min; • (4) The supernatant and an equal volume of 2*SDS solution (its formulation was given below) were mixed, and subjected to SDS-PAGE in a concentration of 8%, then the protein was transferred to PVDF membrane; each PVDF membrane was blocked with 25 mL of skim milk for 1 h, and then rinsed with TBST buffer (its formulation was given below) 3 times for 10 min each time; • (5) AMPKα subunit primary antibody (Cell Signaling Technology, #2532), primary antibody of phosphothreonine at the 172nd position of AMPK (Cell Signaling Technology, #2535), ACC primary antibody (Cell Signaling Technology, #3662), or primary antibody of phosphoserine at the 79th position of ACC (Cell Signaling Technology, #3661) was diluted in a ratio of 1:1000 with a primary antibody dilution (its formulation was given below), reacted with the PVDF membrane at room temperature for 12 h, and then rinsed 3 times with TBST buffer; • (6) A 1:1000 dilution of HRP-conjugated goat anti-rabbit secondary antibody (Jackson ImmunoResearch, 111-035-003) was added, reacted at room temperature for 1 h, and then rinsed 3 times with TBST buffer; • (7) The PVDF membrane was dried, reacted in an ECL mixture (WesternBright ECL HRP substrate, Advansta) and subjected to exposure with medical X-ray, developed, finally rinsed, dried, and then scanned to obtain data related to AMPK activation.
# The formulations of reagents used were: • Cell lysate: 20 mM Tris-base, pH 7.5, 150 mM NaCl, 1 mM EDTA, 1 mM EGTA, 2.5 mM Sodium pyrophosphate, 1 mM β-glycerolphosphate, 1% Triton X-100 (v/v); • 2*SDS solution: 20% Glycerol (v/v), 4% SDS (m/v), 10% β-mecaptoethanol (v/v), 0.01% Bromophenol blue (m/v); • TBST buffer: 4.84% Tris-base (m/v), 8% NaCl (m/v), 0.1% Tween-20 (v/v); • Primary antibody dilution: TBST buffer containing 5% BSA (v/v).
Structure (SMILES),"Degree of AMPK activation, p-ACC/ACC","Degree of AMPK activation, p-AMPKα/AMPK"
Br.Cc1n(CCCCCCCCCCCCCCCCF)cc[n+]1Cc1c(Cl)cccc1Cl [IA-2],0.73,1.00
Cc1n(CCCCCCCCCCCCCCCCF)cc[n+]1Cc1c(Cl)cccc1Cl.[I-] [IA-3],0.83,0.69
FC(F)(F)C(F)(F)C(F)(F)CCCCCCCCCCCn1cc[n+](Cc2c(Cl)cccc2Cl)c1.[Cl-] [IB-1],0.71,0.99
Fc1cccc(Cl)c1C[n+]1ccn(CCCCCCCCCCCC(F)(F)C(F)(F)C(F)(F)F)c1.[Cl-] [IB-2],0.82,1.45
COc1ccc(F)cc1C[n+]1ccn(CCCCCCCCCCCC(F)(F)C(F)(F)C(F)(F)F)c1.[Br-] [IB-3],0.64,1.70
Cc1n(CCCCCCCCCCCC(F)(F)C(F)(F)C(F)(F)F)cc[n+]1Cc1c(F)cccc1Cl.[Cl-] [IB-5],0.70,1.85
CC(C)c1n(CCCCCCCCCCCC(F)(F)C(F)(F)C(F)(F)F)cc[n+]1Cc1c(Cl)cccc1Cl.[Cl-] [IB-7],0.87,1.93
CC(C)c1n(CCCCCCCCCCCC(F)(F)C(F)(F)C(F)(F)F)cc[n+]1Cc1c(F)cccc1Cl.[Cl-] [IB-8],0.90,1.23
COc1ccc(F)cc1C[n+]1ccn(CCCCCCCCCCCC(F)(F)C(F)(F)C(F)(F)F)c1C(C)C.[Br-] [IB-9],0.27,1.07
Cl.FC(F)(F)C(F)(F)C(F)(F)CCCCCCCCCCCn1cc[n+](Cc2c(Cl)cccc2Cl)c1C1CC1 [IB-10],0.35,1.94
Fc1cccc(Cl)c1C[n+]1ccn(CCCCCCCCCCCC(F)(F)C(F)(F)C(F)(F)F)c1C1CC1.[Cl-] [IB-11],0.41,1.11
Br.COc1ccc(F)cc1C[n+]1ccn(CCCCCCCCCCCC(F)(F)C(F)(F)C(F)(F)F)c1C1CC1 [IB-12],0.50,1.18
Cl.FC(F)(F)C(F)(F)C(F)(F)C(F)(F)CCCCCCCCCCCn1cc[n+](Cc2c(Cl)cccc2Cl)c1 [IB-13],0.57,1.31
Cl.Fc1cccc(Cl)c1C[n+]1ccn(CCCCCCCCCCCC(F)(F)C(F)(F)C(F)(F)C(F)(F)F)c1 [IB-14],0.50,1.57
Cc1n(CCCCCCCCCCCC(F)(F)C(F)(F)C(F)(F)C(F)(F)F)cc[n+]1Cc1c(F)cccc1Cl.[Cl-] [IB-17],0.72,1.42
Cc1n(CCCCCCCCCCCC(F)(F)C(F)(F)C(F)(F)C(F)(F)F)cc[n+]1Cc1c(Cl)cccc1Cl.[Br-] [IB-18],0.65,1.45
COc1ccc(F)cc1C[n+]1ccn(CCCCCCCCCCCC(F)(F)C(F)(F)C(F)(F)C(F)(F)F)c1C.[Br-] [IB-20],0.82,1.22
Cc1n(CCCCCCCCCCCC(F)(F)C(F)(F)C(F)(F)C(F)(F)F)cc[n+]1Cc1c(Cl)cccc1Cl.[I-] [IB-21],1.73,0.35
Cc1n(CCCCCCCCCCCC(F)(F)C(F)(F)C(F)(F)C(F)(F)F)cc[n+]1Cc1c(F)cccc1Cl.[I-] [IB-22],1.08,0.44

Structure (SMILES),"Degree of AMPK activation, p-ACC/ACC","Degree of AMPK activation, p-AMPKα/AMPK"
COc1ccc(F)cc1C[n+]1ccn(CCCCCCCCCCCC(F)(F)C(F)(F)C(F)(F)C(F)(F)F)c1C.[I-] [IB-23],1.50,0.49
CC(C)c1n(CCCCCCCCCCCC(F)(F)C(F)(F)C(F)(F)C(F)(F)F)cc[n+]1Cc1c(Cl)cccc1Cl.[Cl-] [IB-24],1.60,0.64
CC(C)c1n(CCCCCCCCCCCC(F)(F)C(F)(F)C(F)(F)C(F)(F)F)cc[n+]1Cc1c(F)cccc1Cl.[Cl-] [IB-25],1.10,0.58
COc1ccc(F)cc1C[n+]1ccn(CCCCCCCCCCCC(F)(F)C(F)(F)C(F)(F)C(F)(F)F)c1C(C)C.[Br-] [IB-26],1.04,0.94
FC(F)(F)C(F)(F)C(F)(F)C(F)(F)CCCCCCCCCCCn1cc[n+](Cc2c(Cl)cccc2Cl)c1C1CC1.[Cl-] [IB-27],1.06,0.95
COc1ccc(F)cc1C[n+]1ccn(CCCCCCCCCCCC(F)(F)C(F)(F)C(F)(F)C(F)(F)F)c1C1CC1.[Br-] [IB-29],0.81,0.76
Cc1n(CCCCCCCCCCCC(F)(F)C(F)(F)C(F)(F)C(F)(F)C(F)(F)F)cc[n+]1Cc1c(Cl)cccc1Cl.[Br-] [IB-35],1.15,1.02
Cc1n(CCCCCCCCCCCC(F)(F)C(F)(F)C(F)(F)C(F)(F)C(F)(F)F)cc[n+]1Cc1c(F)cccc1Cl.[I-] [IB-39],1.51,1.50
COc1ccc(F)cc1C[n+]1ccn(CCCCCCCCCCCC(F)(F)C(F)(F)C(F)(F)C(F)(F)C(F)(F)F)c1C.[I-] [IB-40],1.65,1.06
CC(C)c1n(CCCCCCCCCCCC(F)(F)C(F)(F)C(F)(F)C(F)(F)C(F)(F)F)cc[n+]1Cc1c(F)cccc1Cl.[Cl-] [IB-42],1.50,1.03
Fc1cccc(Cl)c1C[n+]1ccn(CCCCCCCCCCCC(F)(F)C(F)(F)C(F)(F)C(F)(F)C(F)(F)F)c1C1CC1.[Cl-] [IB-45],2.22,0.54
COc1ccc(F)cc1C[n+]1ccn(CCCCCCCCCCCC(F)(F)C(F)(F)C(F)(F)C(F)(F)C(F)(F)F)c1C1CC1.[Br-] [IB-46],1.73,0.57
COc1ccc(F)cc1C[n+]1ccn(CCCCCCCCCCCC(F)(F)C(F)(F)C(F)(F)C(F)(F)C(F)(F)C(F)(F)F)c1C.[Br-] [IB-52],0.98,0.83
CC(C)c1n(CCCCCCCCCCCC(F)(F)C(F)(F)C(F)(F)C(F)(F)C(F)(F)C(F)(F)F)cc[n+]1Cc1c(Cl)cccc1Cl.Cl [IB-53],1.23,0.76
Br.COc1ccc(F)cc1C[n+]1ccn(CCCCCCCCCCCC(F)(F)C(F)(F)C(F)(F)C(F)(F)C(F)(F)C(F)(F)F)c1C(C)C [IB-55],1.98,0.87
Cl.FC(F)(F)C(F)(F)C(F)(F)C(F)(F)C(F)(F)C(F)(F)CCCCCCCCCCCn1cc[n+](Cc2c(Cl)cccc2Cl)c1C1CC1 [IB-56],0.99,0.85
Cc1n(CCCCCCCCCCCC(F)(F)C(F)(F)C(F)(F)C(F)(F)C(F)(F)F)cc[n+]1Cc1c(Cl)cccc1Cl [IB-59],1.04,0.98
Cc1n(CCCCCCCCCCCC(F)(F)C(F)(F)C(F)(F)C(F)(F)C(F)(F)F)cc[n+]1Cc1c(Cl)cccc1Cl [IB-60],1.01,0.94
